A value given as a limit tells only on which side of the number the result lay.

The results in this text go back to patent publication US20240208968A1, “ALPHA V BETA 6 AND ALPHA V BETA 1 INTEGRIN INHIBITORS AND USES THEREOF” (DiCE Molecules SV, Inc., priority 2021, published 2024).

One test concerns the target αvβ6 (Homo sapiens, UniProt P06756+P18564). The test can be described thus: Solid Phase Integrin αvβ6 Assay. The class given is binding. In short, it runs like this:
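Plates coated with 1 μg/mL recombinant TGFb1-LAP; compounds and αvβ6 (0.2 μg/mL diluted stock) incubated 1 h at room temperature in 2% BSA/TBST with 1 mM MnCl2. Bound integrin detected with streptavidin-HRP and TMB; IC50 from four-parameter logistic fits.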

For the next test, the target named is αvβ1 (Homo sapiens, UniProt P05556+P06756). Kind of test: Solid Phase Integrin αvβ1 Assay. Format: binding. In a few lines:
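Wells coated with 1 µg/mL recombinant TGFb1-LAP and blocked with 2% BSA/TBST, 1 mM MnCl2; αvβ1 (added at 0.2 µg/mL) and compound incubated 90 min at room temperature. Bound integrin detected by streptavidin-HRP (20 min) and TMB after Mn-containing washes; IC50 by four-parameter logistic fit.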

αvβ6, sequence (P06756 31-992 limits assumed): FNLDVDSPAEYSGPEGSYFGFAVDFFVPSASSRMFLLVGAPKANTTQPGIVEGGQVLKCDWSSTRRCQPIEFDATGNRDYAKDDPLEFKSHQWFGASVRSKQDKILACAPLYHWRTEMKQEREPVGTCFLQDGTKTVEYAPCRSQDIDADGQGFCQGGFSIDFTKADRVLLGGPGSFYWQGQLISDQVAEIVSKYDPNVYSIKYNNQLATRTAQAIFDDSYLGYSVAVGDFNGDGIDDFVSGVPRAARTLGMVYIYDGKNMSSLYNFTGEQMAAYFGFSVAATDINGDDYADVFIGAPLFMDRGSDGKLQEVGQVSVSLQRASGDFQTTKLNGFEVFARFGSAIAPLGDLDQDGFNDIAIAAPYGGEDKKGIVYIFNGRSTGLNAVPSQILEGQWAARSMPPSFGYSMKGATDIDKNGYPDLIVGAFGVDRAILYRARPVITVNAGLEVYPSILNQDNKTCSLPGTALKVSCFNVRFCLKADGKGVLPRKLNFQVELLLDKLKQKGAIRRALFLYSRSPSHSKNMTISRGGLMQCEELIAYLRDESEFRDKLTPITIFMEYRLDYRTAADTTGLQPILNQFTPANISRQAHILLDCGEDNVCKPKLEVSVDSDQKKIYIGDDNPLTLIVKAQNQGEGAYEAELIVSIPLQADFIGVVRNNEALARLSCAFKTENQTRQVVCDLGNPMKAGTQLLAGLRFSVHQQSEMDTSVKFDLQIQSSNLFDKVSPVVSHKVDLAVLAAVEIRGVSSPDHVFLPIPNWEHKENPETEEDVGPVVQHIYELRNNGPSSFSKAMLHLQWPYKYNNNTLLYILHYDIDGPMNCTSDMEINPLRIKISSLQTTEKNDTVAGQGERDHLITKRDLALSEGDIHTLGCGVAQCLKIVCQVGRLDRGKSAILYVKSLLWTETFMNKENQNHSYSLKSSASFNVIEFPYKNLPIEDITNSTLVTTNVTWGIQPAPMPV
αvβ6, sequence (P18564 22-707 limits assumed): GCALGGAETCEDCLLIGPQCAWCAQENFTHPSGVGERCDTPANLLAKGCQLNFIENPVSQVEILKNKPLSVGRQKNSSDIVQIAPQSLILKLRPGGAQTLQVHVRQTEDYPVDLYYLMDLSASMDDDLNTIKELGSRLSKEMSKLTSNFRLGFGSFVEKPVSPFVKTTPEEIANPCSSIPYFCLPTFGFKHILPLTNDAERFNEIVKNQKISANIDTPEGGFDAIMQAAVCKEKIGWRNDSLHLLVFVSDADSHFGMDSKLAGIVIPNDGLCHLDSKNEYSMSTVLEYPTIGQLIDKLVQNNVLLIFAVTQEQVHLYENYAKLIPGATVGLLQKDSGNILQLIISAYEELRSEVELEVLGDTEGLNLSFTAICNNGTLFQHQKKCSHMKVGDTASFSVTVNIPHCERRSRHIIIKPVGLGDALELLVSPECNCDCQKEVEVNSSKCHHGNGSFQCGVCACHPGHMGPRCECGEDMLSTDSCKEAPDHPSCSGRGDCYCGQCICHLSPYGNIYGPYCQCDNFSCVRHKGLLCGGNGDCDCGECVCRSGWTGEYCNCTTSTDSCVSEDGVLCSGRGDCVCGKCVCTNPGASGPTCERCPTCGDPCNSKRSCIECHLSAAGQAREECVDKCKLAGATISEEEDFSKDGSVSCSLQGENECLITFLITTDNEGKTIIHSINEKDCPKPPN
αvβ1, sequence (P06756 31-992 limits assumed): as the sequence (P06756 31-992 limits assumed) above
αvβ1, sequence (P05556 21-728 limits assumed): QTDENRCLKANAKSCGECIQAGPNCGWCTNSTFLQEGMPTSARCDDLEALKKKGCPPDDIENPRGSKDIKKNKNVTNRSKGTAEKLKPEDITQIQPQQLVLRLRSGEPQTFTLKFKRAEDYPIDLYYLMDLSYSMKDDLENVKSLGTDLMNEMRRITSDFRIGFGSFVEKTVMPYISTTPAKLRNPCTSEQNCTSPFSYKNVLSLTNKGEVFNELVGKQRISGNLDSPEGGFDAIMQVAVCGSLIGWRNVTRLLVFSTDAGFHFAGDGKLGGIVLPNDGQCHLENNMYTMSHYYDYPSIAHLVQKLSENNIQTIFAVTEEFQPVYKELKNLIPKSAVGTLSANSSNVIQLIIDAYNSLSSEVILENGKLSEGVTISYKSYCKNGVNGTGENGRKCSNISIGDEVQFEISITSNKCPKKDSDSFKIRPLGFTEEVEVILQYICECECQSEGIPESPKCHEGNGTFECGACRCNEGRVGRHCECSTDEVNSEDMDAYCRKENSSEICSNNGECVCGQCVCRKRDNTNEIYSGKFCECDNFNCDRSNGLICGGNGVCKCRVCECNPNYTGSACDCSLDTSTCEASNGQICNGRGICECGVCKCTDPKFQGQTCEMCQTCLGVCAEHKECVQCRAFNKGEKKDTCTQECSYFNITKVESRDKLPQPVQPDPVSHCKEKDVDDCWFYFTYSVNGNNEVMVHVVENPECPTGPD

As for `O=C(NC[C@H](C(=O)O)c1cc(F)cc(-c2cccc(F)c2)c1)[C@@H]1CCCN(CCCc2ccc3c(n2)NCCC3)C1` [Compound 629], the IC50 was 100 to 1000 nM on αvβ6 and over 1000 nM on αvβ1.
Consider `C[C@@H]1C[C@@H](C(=O)NC[C@H](C(=O)O)c2cccc(-c3ccccc3)c2)CN(CCCc2ccc3c(n2)NCCC3)C1` [Compound 630], for which the concentration for half-maximal inhibition (IC50) against αvβ6 and at αvβ1 was over 1000 nM each time.
In the case of `C[C@H]1C[C@@H](C(=O)NC[C@H](C(=O)O)c2cccc(-c3ccccc3)c2)CN(CCCc2ccc3c(n2)NCCC3)C1` [Compound 631], the IC50 against αvβ6 and on αvβ1 was under 100 nM each time.
For `C[C@@H]1C[C@@H](C(=O)NC[C@H](C(=O)O)c2ccc3ccccc3c2)CN(CCCc2ccc3c(n2)NCCC3)C1` [Compound 632], the IC50 against αvβ6 and on αvβ1 was 100 to 1000 nM throughout.
In the case of `C[C@H]1C[C@@H](C(=O)NC[C@H](C(=O)O)c2ccc3ccccc3c2)CN(CCCc2ccc3c(n2)NCCC3)C1` [Compound 633], the IC50 against αvβ6 and at αvβ1 was under 100 nM in each case.
Consider `C[C@@H]1C[C@H](C(=O)NC[C@H](C(=O)O)c2ccc3ccccc3c2)CN(CCCc2ccc3c(n2)NCCC3)C1` [Compound 634], for which the IC50 on αvβ6 and at αvβ1 was 100 to 1000 nM in each case.
Take `C[C@H]1C[C@H](C(=O)NC[C@H](C(=O)O)c2ccc3ccccc3c2)CN(CCCc2ccc3c(n2)NCCC3)C1` [Compound 635]: the IC50 on αvβ6 and at αvβ1 was 100 to 1000 nM each time.
Consider `O=C(NC[C@@H](C(=O)O)c1cc(F)cc(-c2cccc(F)c2)c1)[C@@H]1CCCN(CCCc2ccc3c(n2)NCCC3)C1` [Compound 636], for which the IC50 against αvβ6 and on αvβ1 was under 100 nM each time.
For the compound `C[C@@H]1C[C@H](C(=O)NC[C@H](C(=O)O)c2cccc(-c3ccccc3)c2)CN(CCCc2ccc3c(n2)NCCC3)C1` [Compound 637], the IC50 against αvβ6 is under 100 nM; at αvβ1 it was 100 to 1000 nM.
With `C[C@H]1C[C@H](C(=O)NC[C@H](C(=O)O)c2cccc(-c3ccccc3)c2)CN(CCCc2ccc3c(n2)NCCC3)C1` [Compound 638], the IC50 on αvβ6 and against αvβ1 was under 100 nM in each case.
Regarding `C[C@@H]1C[C@@H](C(=O)NC[C@@H](C(=O)O)c2ccc3ccccc3c2)CN(CCCc2ccc3c(n2)NCCC3)C1` [Compound 639], the IC50 against αvβ6 and at αvβ1 was 100 to 1000 nM each time.
With `C[C@@H]1C[C@@H](C(=O)NC[C@@H](C(=O)O)c2cccc(-c3ccccc3)c2)CN(CCCc2ccc3c(n2)NCCC3)C1` [Compound 640], the IC50 against αvβ6 and on αvβ1 was 100 to 1000 nM throughout.
As to `C[C@@H]1C[C@H](C(=O)NC[C@@H](C(=O)O)c2ccc3ccccc3c2)CN(CCCc2ccc3c(n2)NCCC3)C1` [Compound 641], the IC50 against αvβ6 and at αvβ1 was 100 to 1000 nM in each case.
`C[C@@H]1C[C@H](C(=O)NC[C@@H](C(=O)O)c2cccc(-c3ccccc3)c2)CN(CCCc2ccc3c(n2)NCCC3)C1` [Compound 642]: the IC50 at αvβ6 and against αvβ1 was over 1000 nM throughout.
As to `C[C@H]1C[C@H](C(=O)NC[C@@H](C(=O)O)c2ccc3ccccc3c2)CN(CCCc2ccc3c(n2)NCCC3)C1` [Compound 643], the IC50 against αvβ6 and at αvβ1 was under 100 nM in each case.
As for `C[C@H]1C[C@H](C(=O)NC[C@@H](C(=O)O)c2cccc(-c3ccccc3)c2)CN(CCCc2ccc3c(n2)NCCC3)C1` [Compound 644], the IC50 against αvβ6 and against αvβ1 was 100 to 1000 nM each time.
In the case of `C[C@H]1C[C@@H](C(=O)NC[C@@H](C(=O)O)c2ccc3ccccc3c2)CN(CCCc2ccc3c(n2)NCCC3)C1` [Compound 645], the figures for the IC50 against αvβ6 and on αvβ1 were over 1000 nM and 100 to 1000 nM, respectively.
The like results for `C[C@H]1C[C@@H](C(=O)NC[C@@H](C(=O)O)c2cccc(-c3ccccc3)c2)CN(CCCc2ccc3c(n2)NCCC3)C1` [Compound 646] were, in that order, 100 to 1000 nM and over 1000 nM.
Consider `CC1(C)CN(c2cc([C@@H](CO[C@@H]3CCCN(CCCc4ccc5c(n4)NCCC5)C3)CC(=O)O)ccc2Cl)CCO1` [Compound 647], for which the IC50 against αvβ6 and at αvβ1 was under 100 nM throughout.
For the compound `CC1(C)CN(c2cc([C@H](CO[C@@H]3CCCN(CCCc4ccc5c(n4)NCCC5)C3)CC(=O)O)ccc2Cl)CCO1` [Compound 648], the IC50 at αvβ6 and on αvβ1 was 100 to 1000 nM throughout.
`O=C(O)C[C@@H](CO[C@@H]1CCCN(CCCc2ccc3c(n2)NCCC3)C1)c1cncc(N2CCC(F)(F)CC2)c1` [Compound 649]: the IC50 against αvβ6 and against αvβ1 was under 100 nM in each case.
As to `CC1(C)CN(c2cc(Cl)cc(C(CO[C@@H]3CCCN(CCCc4ccc5c(n4)NCCC5)C3)CC(=O)O)c2)CCO1` (stereo partly drawn) [Compound 650], the IC50 on αvβ6 and at αvβ1 was under 100 nM throughout.
With `CC1(C)CN(c2cccc([C@H](CO[C@@H]3CCCN(CCCc4ccc5c(n4)NCCC5)C3)CC(=O)O)c2)CCC1(F)F` [Compound 651], the 50% inhibitory concentration (IC50) at αvβ6 and against αvβ1 was under 100 nM in each case.
With `CC1(C)CN(c2cccc([C@@H](CO[C@@H]3CCCN(CCCc4ccc5c(n4)NCCC5)C3)CC(=O)O)c2)CCC1(F)F` [Compound 652], the IC50 against αvβ6 and against αvβ1 was under 100 nM in each case.
